Assay results: patent US9315535B2, “Nucleoside and nucleotide having nitrogen-containing heterocycle structure” (SHIONOGI & CO., LTD., priority 2013, dated 2016)

Legend:
[1] = test system: DNA complementary strand (sense strand 3′-CGC AAA AAA CGA-5′); experiment: Melting temperature (Tm) of oligonucleotide hybridized to the DNA complementary strand; format: binding
Experimental: (§1) Nitrogen stream was passed through the cell chamber of the spectrophotometer (SHIMADZU UV-1800) to prevent dew condensation, and the sample solution was gradually cooled to 5° C. and kept at 5° C. for 15 minutes before starting the measurements. The temperature was raised to 90° C. at the rate of 0.5° C./min while ultraviolet absorption spectra were measured at 260 nm at intervals of 0.5° C. Lidded cells were used to prevent concentration change due to rising temperature.
(§2) The method for determining the Tm values was a method similar to (1).
as §2

[2] = test system: RNA complementary strand (sense strand 3′-CGC AAA AAA CGA-5′); experiment: Melting temperature (Tm) of oligonucleotide hybridized to the RNA complementary strand; format: binding
Experimental: as §1, §2, §2

[3] = Table 10, X = II-1 (compound I-1), 100 mM NaCl, 10 mM sodium phosphate buffer (pH 7.2), 4.0 μM each strand
[4] = Table 11, Xp = II-2 (compound IV-1), method similar to (1)
[5] = Table 12, nucleoside structure of compound VII-1 (II-3), method similar to (1)

Substance: 5′-d(GCG TTT TTT GCT)-3′ (DNA GCGTTTTTTGCT; DNA, backbone not given here) [oligonucleotide (0), nucleoside moieties of the oligonucleotide are unmodified, used as a control, reference compound]
- Tm, DNA complementary strand [1, 3]: 53.1 °C
- Tm, DNA complementary strand [1, 4]: 53.1 °C
- Tm, DNA complementary strand [1, 5]: 54.0 °C
- Tm, RNA complementary strand [2, 3]: 49.3 °C
- Tm, RNA complementary strand [2, 4]: 49.3 °C
- Tm, RNA complementary strand [2, 5]: 49.7 °C
